Assay results as given in patent US9249129B2, “Morpholino substituted urea derivatives as mTOR inhibitors” (CELLZOME LIMITED, priority 2010, dated 2016).
Where two headings read alike, the source gives them in different places.

Biological target: T1, PI3K delta (PI3Kd) (Homo sapiens, UniProt O00329)
T1 construct: endogenous in cells; host or cells: Jurkat cells (ATCC TIB-152, clone E6-1), lysate
Assay: kinobeads assay, PI3K delta (dot blot detection)
Type: binding
Method in brief: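 Jurkat cell lysate (5 mg/ml protein) was incubated with test compounds and kinobeads (immobilized phenylthiazole and phenylmorpholin-chromen ligands) for 2 h in the cold with shaking. Bead-bound kinase was SDS-eluted and quantified by antibody dot blot with infrared detection. IC50 values came from dose-response curves.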

[1] = Table 2, Jurkat cell lysate, read-out: Inhibition values (IC50) PI3Kd
[2] = Table 4, read-out: Inhibition values (IC50) PI3Kd

T1 sequence (O00329 whole entry): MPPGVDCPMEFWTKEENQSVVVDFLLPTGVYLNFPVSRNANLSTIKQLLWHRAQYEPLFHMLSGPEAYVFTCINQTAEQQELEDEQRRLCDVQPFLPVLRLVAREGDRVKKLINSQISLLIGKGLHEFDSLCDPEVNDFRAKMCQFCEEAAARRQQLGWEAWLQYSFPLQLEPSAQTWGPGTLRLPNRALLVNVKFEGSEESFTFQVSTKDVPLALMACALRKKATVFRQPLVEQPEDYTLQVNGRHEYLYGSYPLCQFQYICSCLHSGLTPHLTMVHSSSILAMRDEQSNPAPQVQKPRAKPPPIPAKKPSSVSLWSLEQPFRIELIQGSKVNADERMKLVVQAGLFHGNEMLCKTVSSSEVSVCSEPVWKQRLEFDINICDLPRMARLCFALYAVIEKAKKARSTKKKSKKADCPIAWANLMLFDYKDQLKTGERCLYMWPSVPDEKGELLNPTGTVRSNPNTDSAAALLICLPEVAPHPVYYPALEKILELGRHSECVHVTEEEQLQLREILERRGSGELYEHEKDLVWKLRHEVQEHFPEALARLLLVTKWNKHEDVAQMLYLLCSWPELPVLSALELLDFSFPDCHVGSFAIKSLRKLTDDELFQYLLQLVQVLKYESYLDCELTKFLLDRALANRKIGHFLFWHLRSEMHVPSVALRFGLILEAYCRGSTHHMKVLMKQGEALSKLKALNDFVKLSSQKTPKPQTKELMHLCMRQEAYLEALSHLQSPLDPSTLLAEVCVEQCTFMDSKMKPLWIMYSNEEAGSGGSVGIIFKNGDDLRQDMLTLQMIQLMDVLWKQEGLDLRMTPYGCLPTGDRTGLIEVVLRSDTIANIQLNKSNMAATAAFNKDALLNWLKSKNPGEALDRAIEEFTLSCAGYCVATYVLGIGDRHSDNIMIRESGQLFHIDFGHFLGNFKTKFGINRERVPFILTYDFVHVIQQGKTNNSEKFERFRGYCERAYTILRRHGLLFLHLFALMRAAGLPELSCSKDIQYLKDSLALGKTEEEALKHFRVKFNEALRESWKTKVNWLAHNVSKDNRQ
T1 sequence (P27986 whole entry partner): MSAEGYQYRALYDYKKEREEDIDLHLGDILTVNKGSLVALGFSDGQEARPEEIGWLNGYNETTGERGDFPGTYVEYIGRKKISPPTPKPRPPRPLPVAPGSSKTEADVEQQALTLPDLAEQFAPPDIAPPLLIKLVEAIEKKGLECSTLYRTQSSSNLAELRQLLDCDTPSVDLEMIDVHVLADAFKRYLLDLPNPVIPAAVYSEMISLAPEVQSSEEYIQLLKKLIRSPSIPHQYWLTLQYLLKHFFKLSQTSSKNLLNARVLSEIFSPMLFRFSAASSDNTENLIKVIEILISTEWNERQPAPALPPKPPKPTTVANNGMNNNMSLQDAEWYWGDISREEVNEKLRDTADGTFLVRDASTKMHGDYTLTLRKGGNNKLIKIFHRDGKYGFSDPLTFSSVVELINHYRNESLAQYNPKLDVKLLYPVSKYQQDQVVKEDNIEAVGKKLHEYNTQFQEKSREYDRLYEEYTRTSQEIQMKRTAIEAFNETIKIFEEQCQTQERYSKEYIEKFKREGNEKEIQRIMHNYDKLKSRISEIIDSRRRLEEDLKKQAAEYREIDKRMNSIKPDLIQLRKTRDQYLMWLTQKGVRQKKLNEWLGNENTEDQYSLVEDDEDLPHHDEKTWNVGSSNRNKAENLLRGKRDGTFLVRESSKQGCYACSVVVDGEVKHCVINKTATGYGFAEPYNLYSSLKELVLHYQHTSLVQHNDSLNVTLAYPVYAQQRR

With `C[C@H]1COCCN1c1nc(-c2ccc(NC(=O)NC3CC3)cc2)cc(-c2ccccc2S(C)(=O)=O)n1` [Example 4, (S)-1-cyclopropyl-3-(4-(2-(3-methylmorpholino)-6-(2-(methylsulfonyl)phenyl)pyrimidin-4-yl)phenyl)urea] the IC50 [1] was ≥ 10 µM and the IC50 [2] was ≥ 10 µM.

For `CS(=O)(=O)c1ccc(F)cc1-c1cc(-c2ccc(NC(=O)NCCO)cc2)nc(N2CCOCC2)n1` [Example 62, 1-(4-(6-(5-fluoro-2-(methylsulfonyl)phenyl)-2-morpholinopyrimidin-4-yl)phenyl)-3-(2-hydroxyethyl)urea], the IC50 [1] was ≥ 10 µM and the IC50 [2] was ≥ 10 µM.

For `C[C@H]1COCCN1c1nc(-c2ccc(NC(=O)NCCO)cc2)cc(-c2cc(F)ccc2S(C)(=O)=O)n1` [Example 41, (S)-1-(4-(6-(5-fluoro-2-(methylsulfonyl)phenyl)-2-(3-methylmorpholino)pyrimidin-4-yl)phenyl)-3-(2-hydroxyethyl)urea], the IC50 [1] was ≥ 10 µM and the IC50 [2] was ≥ 10 µM.

`C[C@H]1COCCN1c1cc(-c2ccccc2S(C)(=O)=O)nc(-c2ccc(NC(=O)NC3CC3)cc2)n1` [Example 6, (S)-1-cyclopropyl-3-(4-(4-(3-methylmorpholino)-6-(2-(methylsulfonyl)phenyl)pyrimidin-2-yl)phenyl)urea] was tested, and the IC50 [1] was ≥ 10 µM and the IC50 [2] was ≥ 10 µM.

For `C[C@H]1COCCN1c1nc(-c2ccc(NC(=O)NCCF)cc2)cc(-c2cc(F)ccc2S(C)(=O)=O)n1` [Example 44, (S)-1-(4-(6-(5-fluoro-2-(methylsulfonyl)phenyl)-2-(3-methylmorpholino)pyrimidin-4-yl)phenyl)-3-(2-fluoroethyl)urea], the IC50 [1] was ≥ 10 µM and the IC50 [2] was ≥ 10 µM.

In the case of `C[C@H]1COCCN1c1nc(-c2ccc(NC(=O)N[C@H]3CCC[C@@H]3O)cc2)cc(-c2cc(F)ccc2S(C)(=O)=O)n1` [Example 76, 1-(4-(6-(5-fluoro-2-(methylsulfonyl)phenyl)-2-((S)-3-methylmorpholino)pyrimidin-4-yl)phenyl)-3-((1S,2S)-2-hydroxycyclopentyl)urea], the IC50 [2] is reported as ≥ 10 µM.

`C[C@H]1COCCN1c1nc(-c2ccc(NC(=O)NC3CC3)cc2)cc(-c2cccnc2S(C)(=O)=O)n1` [Example 46, (S)-1-cyclopropyl-3-(4-(2-(3-methylmorpholino)-6-(2-(methylsulfonyl)pyridin-3-yl)pyrimidin-4-yl)phenyl)urea] was tested, and the IC50 [1] was ≥ 10 µM and the IC50 [2] was ≥ 10 µM.

With `C[C@H]1COCCN1c1nc(-c2ccc(NC(=O)NCC(F)F)cc2)cc(-c2cc(F)ccc2S(C)(=O)=O)n1` [Example 47, (S)-1-(2,2-difluoroethyl)-3-(4-(6-(5-fluoro-2-(methylsulfonyl)phenyl)-2-(3-methylmorpholino)pyrimidin-4-yl)phenyl)urea] the IC50 [1] was ≥ 10 µM and the IC50 [2] was ≥ 10 µM.

For `C[C@H]1COCCN1c1cc(-c2ccc(F)nc2)nc(-c2ccc(NC(=O)NC3CC3)cc2)n1` [Example 21, (S)-1-cyclopropyl-3-(4-(4-(6-fluoropyridin-3-yl)-6-(3-methylmorpholino)pyrimidin-2-yl)phenyl)urea], the IC50 [1] was ≥ 10 µM and the IC50 [2] was ≥ 10 µM.

With `C[C@H]1COCCN1c1cc(-c2ccccn2)nc(-c2ccc(NC(=O)NCCO)cc2)n1` [Example 43, (S)-1-(2-hydroxyethyl)-3-(4-(4-(3-methylmorpholino)-6-(pyridin-2-yl)pyrimidin-2-yl)phenyl)urea] the IC50 [1] was ≥ 10 µM and the IC50 [2] was ≥ 10 µM.

`C[C@H]1COCCN1c1cc(-c2cncc(F)c2)nc(-c2ccc(NC(=O)NC3CC3)cc2)n1` [Example 23, (S)-1-cyclopropyl-3-(4-(4-(5-fluoropyridin-3-yl)-6-(3-methylmorpholino)pyrimidin-2-yl)phenyl)urea] was tested, and the IC50 [1] was ≥ 10 µM and the IC50 [2] was ≥ 10 µM.

In the case of `CCNC(=O)Nc1ccc(-c2cc(-c3cc(F)ccc3S(C)(=O)=O)nc(N3CCOC[C@@H]3C)n2)cc1` [Example 2, (S)-1-ethyl-3-(4-(6-(5-fluoro-2-(methylsulfonyl)phenyl)-2-(3-methylmorpholino)pyrimidin-4-yl)phenyl)urea], the IC50 [1] is reported as ≥ 10 µM and the IC50 [2] is reported as ≥ 10 µM.

With `C[C@H]1COCCN1c1nc(-c2ccc(NC(=O)NC3CC3)cc2)cc(-c2cc(F)ccc2S(C)(=O)=O)n1` [Example 40, (S)-1-cyclopropyl-3-(4-(6-(5-fluoro-2-(methylsulfonyl)phenyl)-2-(3-methylmorpholino)pyrimidin-4-yl)phenyl)urea] the IC50 [1] was ≥ 10 µM and the IC50 [2] was ≥ 10 µM.

`C[C@H]1COCCN1c1cc(-c2ccccn2)nc(-c2ccc(NC(=O)NC3CC3)cc2)n1` [Example 42, (S)-1-cyclopropyl-3-(4-(4-(3-methylmorpholino)-6-(pyridin-2-yl)pyrimidin-2-yl)phenyl)urea] was tested, and the IC50 [1] was ≥ 10 µM and the IC50 [2] was ≥ 10 µM.

With `C[C@H]1COCCN1c1ccnc(-c2ccc(NC(=O)Nc3ccncc3)cc2)n1` [Example 60, (S)-1-(4-(4-(3-methylmorpholino)pyrimidin-2-yl)phenyl)-3-(pyridin-4-yl)urea] the IC50 [1] was ≥ 10 µM and the IC50 [2] was ≥ 10 µM.

`CCNC(=O)Nc1ccc(-c2cc(-c3ccccc3C#N)nc(N3CCOC[C@@H]3C)n2)cc1` [Example 8, (S)-1-(4-(6-(2-cyanophenyl)-2-(3-methylmorpholino)pyrimidin-4-yl)phenyl)-3-ethylurea] was tested, and the IC50 [1] was ≥ 10 µM and the IC50 [2] was ≥ 10 µM.

`C[C@H]1COCCN1c1nc(-c2ccc(NC(=O)NCCCO)cc2)cc(-c2cc(F)ccc2S(C)(=O)=O)n1` [Example 64, (S)-1-(4-(6-(5-fluoro-2-(methylsulfonyl)phenyl)-2-(3-methylmorpholino)pyrimidin-4-yl)phenyl)-3-(3-hydroxypropyl)urea] was tested, and the IC50 [1] was ≥ 10 µM and the IC50 [2] was ≥ 10 µM.

With `O=C(Nc1ccncc1)Nc1ccc(-c2nccc(N3CC4CCC(C3)O4)n2)cc1` [Example 61, 1-(4-(4-(8-oxa-3-azabicyclo[3.2.1]octan-3-yl)pyrimidin-2-yl)phenyl)-3-(pyridin-4-yl)urea] the IC50 [1] was ≥ 10 µM and the IC50 [2] was ≥ 10 µM.
